# Measurements as given in patent US20130197085A1, “AGENT AND METHOD FOR STABILIZING MEMBRANE PROTEIN” (priority 2007, published 2013).
# How the values were obtained:
# [1] = test system: extrinsic P-gp; experiment: Decomposition rate of cell surface-expressed protein (biotin-labeling) in MDCKII cells; assay type: cell-based; settings: 1 mM 4PBA
# [2] = test system: intrinsic dipeptidyl peptidase IV (DPPIV); experiment: as above; assay type: cell-based; settings: 1 mM 4PBA
# Description: MDCKII cells were dispersed on a 6-well plate, resulting in a density of 2.5×10^5 cells/well. After completion of the culture for 24 hours, the confluent cells were infected with recombinant adenoviruses having the cDNAs of wild-type, E297G and D482G BSEPs, and GFP, at 200 MOI. After completion of the infection, the cells were cultured for 24 hours. […] After completion of the treatment for 24 hours, the cells were biotinylated (see Hayashi et al., Hepatology, 41: 916-924, 2005).
# The remaining biotinylated protein was isolated, and it was then subjected to 6% SDS-PAGE, followed by Western blotting.
smiles,measurement,setting,value
"O=C(O)CCCc1ccccc1 [4PBA, 4-phenylbutyric acid]",decomposition of extrinsic P-gp on the cell surface,[1],not influenced
same,decomposition of intrinsic DPPIV on the cell surface,[2],not influenced
